ChEMBL document CHEMBL3045199, “Synthesis of some (E)-6-[2-(furan-2-yl)ethenyl]-1,2,4-triazin-5-ones and their biological evaluation as antitumor agents” (2013)

Legend:
Format in all cases: functional
[1] = Cytotoxicity against Homo sapiens (human) colon cancer cells after 48 hr by SRB assay; conditions: Cancer cell lines
SNB-19 = experiment: Cytotoxicity against Homo sapiens (human) SNB19 cells assessed as growth inhibition at 10 uM after 24 hr; conditions: SNB-19, 24 h, read-out: GI
SF-268 = experiment: Cytotoxicity against Homo sapiens (human) SF268 cells assessed as growth inhibition at 10 uM after 24 hr; conditions: SF-268, 24 h, read-out: GI
HCC 2998 = experiment: Cytotoxicity against Homo sapiens (human) HCC2998 cells assessed as growth inhibition at 10 uM after 24 hr; conditions: HCC 2998, 24 h, read-out: GI
NCI-H226 = experiment: Cytotoxicity against Homo sapiens (human) NCI-H226 cells assessed as growth inhibition at 10 uM after 24 hr; conditions: NCI-H226, 24 h, read-out: GI
RPMI-8226 = experiment: Cytotoxicity against Homo sapiens (human) RPMI8226 cells assessed as growth inhibition at 10 uM after 24 hr; conditions: RPMI-8226, 24 h, read-out: GI
CCRF-CEM = experiment: Cytotoxicity against Homo sapiens (human) CCRF-CEM cells assessed as growth inhibition at 10 uM after 24 hr; conditions: read-out: GI
[2] = Cytotoxicity against Homo sapiens (human) breast cancer cells after 48 hr by SRB assay; conditions: Cancer cell lines
OVCAR-4 = experiment: Cytotoxicity against Homo sapiens (human) OVCAR4 cells assessed as growth inhibition at 10 uM after 24 hr; conditions: OVCAR-4, 24 h, read-out: GI
U-251 = experiment: Cytotoxicity against Homo sapiens (human) U251 cells assessed as growth inhibition at 10 uM after 24 hr; conditions: U-251, 24 h, read-out: GI
T47D = experiment: Cytotoxicity against Homo sapiens (human) T47D cells assessed as growth inhibition at 10 uM after 24 hr; conditions: read-out: GI
MCF7 = experiment: Cytotoxicity against Homo sapiens (human) MCF7 cells assessed as growth inhibition at 10 uM after 24 hr; conditions: MCF7, 24 h, read-out: GI
[3] = read-out: LC50 (the source's name)

Nc1cc(-c2ccc(Cl)cc2)nn1-c1nc(=O)c(/C=C/c2ccco2)n[nH]1
GI50 [1]: 4.27 µM
TGI [1]: 22 µM
CC50 [1, 3]: > 100 µM
inhibition of growth at 10 µM (SNB-19): 42.4%
inhibition of growth at 10 µM (SF-268): 47.5%
inhibition of growth at 10 µM (HCC 2998): 51.5%
inhibition of growth at 10 µM (NCI-H226): 52.6%
inhibition of growth at 10 µM (RPMI-8226): 56.7%
inhibition of growth at 10 µM (CCRF-CEM): 66.1%
GI50 [2]: 6.39 µM
TGI [2]: 48.1 µM
CC50 [2, 3]: > 100 µM
inhibition of growth at 10 µM (OVCAR-4): 70.9%
inhibition of growth at 10 µM (U-251): 49.4%
inhibition of growth at 10 µM (T47D): 37.3%
inhibition of growth at 10 µM (MCF7): 54.1%
